Our source for the IC50 values is ChEMBL document CHEMBL1122801, “Nontricyclic antidepressant agents derived from cis- and trans-1-amino-4-aryltetralins” (J Med Chem, 1984).

Experiment [1] concerns the target Norepinephrine transporter (Rattus norvegicus, UniProt Q9WTR4). Briefly: Inhibition of norepinephrine uptake in synaptosomal preparation fro rat hypothalamus, using [3H]norepinephrine. In kind it is functional, tissue-based.
Experiment [2] has as its target Sodium-dependent dopamine transporter (Rattus norvegicus, UniProt P23977). Briefly: Inhibition of dopamine uptake in synaptosomal preparation in rat corpus striatum, using [3H]dopamine. In kind it is functional, tissue-based.

pIC50: −log10 of the molar value. Structures can show the parent of a compound that is named as a salt.

Chain of Norepinephrine transporter (Q9WTR4 whole entry): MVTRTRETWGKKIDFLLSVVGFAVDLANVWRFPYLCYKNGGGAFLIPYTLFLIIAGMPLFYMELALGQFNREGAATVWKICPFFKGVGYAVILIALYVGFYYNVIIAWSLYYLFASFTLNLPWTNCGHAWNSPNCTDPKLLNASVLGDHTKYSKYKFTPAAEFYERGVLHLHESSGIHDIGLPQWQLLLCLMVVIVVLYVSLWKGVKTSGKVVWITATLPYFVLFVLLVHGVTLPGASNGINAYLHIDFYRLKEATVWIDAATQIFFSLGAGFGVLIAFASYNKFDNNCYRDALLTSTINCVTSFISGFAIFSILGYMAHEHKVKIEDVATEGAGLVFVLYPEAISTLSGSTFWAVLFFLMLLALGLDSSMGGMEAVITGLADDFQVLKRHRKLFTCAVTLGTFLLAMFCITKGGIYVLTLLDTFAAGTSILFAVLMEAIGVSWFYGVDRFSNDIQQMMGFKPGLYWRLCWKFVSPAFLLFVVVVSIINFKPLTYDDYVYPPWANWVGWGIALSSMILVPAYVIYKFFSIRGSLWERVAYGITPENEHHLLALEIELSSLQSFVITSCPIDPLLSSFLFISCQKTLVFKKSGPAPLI
Chain of Sodium-dependent dopamine transporter (P23977 whole entry): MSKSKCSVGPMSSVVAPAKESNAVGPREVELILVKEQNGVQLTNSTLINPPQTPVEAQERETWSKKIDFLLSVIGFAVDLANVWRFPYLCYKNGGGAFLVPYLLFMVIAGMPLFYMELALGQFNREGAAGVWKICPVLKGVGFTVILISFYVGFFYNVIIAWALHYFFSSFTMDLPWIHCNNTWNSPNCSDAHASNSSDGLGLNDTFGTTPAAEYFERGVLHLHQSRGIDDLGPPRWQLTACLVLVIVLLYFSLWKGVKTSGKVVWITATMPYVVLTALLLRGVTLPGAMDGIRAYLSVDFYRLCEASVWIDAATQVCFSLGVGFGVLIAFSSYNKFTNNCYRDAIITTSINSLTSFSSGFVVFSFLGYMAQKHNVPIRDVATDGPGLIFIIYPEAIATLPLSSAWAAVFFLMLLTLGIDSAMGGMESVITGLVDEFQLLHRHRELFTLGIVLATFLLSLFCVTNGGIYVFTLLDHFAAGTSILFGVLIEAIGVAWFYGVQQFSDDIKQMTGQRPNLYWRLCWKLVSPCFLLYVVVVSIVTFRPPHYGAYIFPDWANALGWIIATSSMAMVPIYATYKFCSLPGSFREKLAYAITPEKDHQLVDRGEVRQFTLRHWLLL

The term pIC50 denotes the negative decadic logarithm of the IC50, by convention in mol/L. In the case of `CN[C@H]1CC[C@@H](c2ccc(Oc3ccccc3)cc2)c2ccccc21`, the pIC50 in experiment [1] is 5.41; in experiment [2], 5.17.

On to `CN[C@@H]1CC[C@@H](c2ccccc2OC)c2ccccc21`, for which the values for the pIC50 in experiment [1] and in experiment [2] were 6.32 and 5.24, respectively.

With `CN(C)[C@@H]1CC[C@@H](c2ccccc2)c2ccccc21`, the values for the pIC50 in experiment [1] and in experiment [2] were 6.85 and 6.08, respectively.

For the molecule `CN[C@H]1CC[C@@H](c2ccc(F)c(OC)c2)c2ccccc21`, the pIC50 is 5.48 in experiment [1] and 6.07 in experiment [2].

In experiment [2], `CN(C)[C@H]1CC[C@@H](c2ccc(Cl)c(Cl)c2)c2ccccc21` gave a pIC50 of 5.70.

`N[C@H]1CC[C@@H](c2cccc(C(F)(F)F)c2)c2ccccc21`: the pIC50 in experiment [1] was 5.46; in experiment [2], 5.33.

Regarding `CN[C@@H]1CC[C@@H](c2ccc(F)c(OC)c2)c2ccccc21`, the pIC50 was 6.47 in experiment [1] and 5.92 in experiment [2].

Regarding `CN[C@@H]1CC[C@@H](c2ccc(Oc3ccccc3)cc2)c2ccccc21`, the results for the pIC50 in experiment [1] and in experiment [2] were 5.64 and 5.08, respectively.

Turning to `CN[C@H]1CC[C@@H](c2ccc(C(F)(F)F)cc2)c2ccccc21` (stereo in doubt; 54), the pIC50 in experiment [1] was 5.03; in experiment [2] it was 5.19.

In the case of `CN[C@@H]1CC[C@@H](c2ccc(OC)cc2)c2ccccc21`, the figures for the pIC50 in experiment [1] and in experiment [2] were 6.82 and 6.40, respectively.

Molecule `CN[C@H]1CC[C@@H](c2ccc(Cl)c(C(F)(F)F)c2)c2ccccc21` (stereo in doubt; 61) showed a pIC50 in experiment [2] of 6.31.

Consider `CN(C)[C@@H]1CC[C@@H](c2cccc(C(F)(F)F)c2)c2ccccc21`, for which the pIC50 is 5.85 in experiment [1] and 5.21 in experiment [2].

For `CN[C@@H]1CC[C@@H](c2ccc(Br)cc2)c2ccccc21`, the negative-log IC50 (pIC50) in experiment [1] is 7.52; in experiment [2], 7.10.

For the molecule `CN(C)[C@@H]1CC[C@@H](c2ccc(C(F)(F)F)cc2)c2ccccc21`, the pIC50 in experiment [1] is 5.33; in experiment [2], 5.01.

On to `CN[C@@H]1CC[C@@H](c2cccc(C(F)(F)F)c2)c2ccccc21`, for which the pIC50 in experiment [1] is 6.59; in experiment [2], 5.59.

`CN[C@@H]1CC[C@@H](c2ccc(Cl)cc2Cl)c2ccccc21` showed a pIC50 in experiment [2] of 5.21.

Take `N[C@H]1CC[C@@H](c2ccc(Cl)c(Cl)c2)c2ccccc21`: the pIC50 in experiment [1] was 6.60; in experiment [2] it was 5.90.

Consider `CN[C@H]1CC[C@@H](c2ccccc2)c2ccccc21` (stereo in doubt; 50), for which the figures for the pIC50 in experiment [1] and in experiment [2] were 5.74 and 5.26, respectively.

On to `N[C@H]1CC[C@@H](c2ccc(C(F)(F)F)cc2)c2ccccc21`, for which the pIC50 was 5.12 in experiment [1] and 5.00 in experiment [2].

Turning to `CN[C@@H]1CC[C@@H](c2ccc(F)cc2)c2ccccc21`, the figures for the pIC50 in experiment [1] and in experiment [2] were 7.52 and 6.66, respectively.

Consider `CN[C@H]1CC[C@@H](c2ccc(Cl)c(C(F)(F)F)c2)c2ccccc21`, for which, in experiment [2], the pIC50 was 5.82.

As for `CN[C@@H]1CC[C@@H](c2cccc(OC)c2)c2ccccc21`, the pIC50 is 7.22 in experiment [1] and 6.28 in experiment [2].

As for `CN[C@@H]1CC[C@@H](c2ccccc2)c2ccccc21` [TAMETRALINE HYDROCHLORIDE], the pIC50 was 7.40 in experiment [1] and 6.68 in experiment [2].

As to `CN[C@H]1CC[C@@H](c2cccc(OC)c2)c2ccccc21`, the figures for the pIC50 in experiment [1] and in experiment [2] were 5.85 and 5.30, respectively.

Turning to `CN1Cc2c(N)cccc2C(c2ccccc2)C1` (configuration not stated) [NOMIFENSINE], the pIC50 in experiment [1] is 7.70.

For `CN[C@H]1CC[C@@H](c2ccc(Cl)cc2Cl)c2ccccc21`, the pIC50 in experiment [2] was 5.77.

In the case of `CN(C)[C@@H]1CC[C@@H](c2ccc(Cl)cc2)c2ccccc21`, the figures for the pIC50 in experiment [1] and in experiment [2] were 6.89 and 6.42, respectively.

In turn, `CCCCOc1ccc([C@@H]2CC[C@H](NC)c3ccccc32)cc1` gave a pIC50 in experiment [1] of 6.03.

Regarding `CN[C@H]1CC[C@@H](c2ccc(Br)cc2)c2ccccc21`, the negative-log IC50 (pIC50) in experiment [1] was 5.85; in experiment [2], 5.80.

Regarding `CN[C@@H]1CC[C@@H](c2ccccc2)c2ccccc21` (stereo in doubt; 44) [TAMETRALINE], the figures for the pIC50 in experiment [1] and in experiment [2] were 7.74 and 6.82, respectively.

On to `CN[C@H]1CC[C@@H](c2ccccc2)c2ccccc21`, for which the negative logarithm of the IC50 (pIC50) in experiment [1] was 5.73; in experiment [2], 5.29.

For the molecule `CN[C@H]1CC[C@@H](c2ccc(OC)cc2)c2ccccc21`, the pIC50 in experiment [1] is 5.52; in experiment [2], 5.38.

On to `CN[C@H]1CC[C@@H](c2ccc(C(F)(F)F)cc2)c2ccccc21` (stereo in doubt; 55), for which the negative logarithm of the IC50 (pIC50) is 4.92 in experiment [1] and 5.25 in experiment [2].

Take `COCCCC/C(=N\OCCN)c1ccc(C(F)(F)F)cc1` [FLUVOXAMINE]: the pIC50 in experiment [1] was 5.72; in experiment [2], 4.35.

`CN(C)[C@H]1CC[C@@H](c2ccccc2)c2ccccc21`: the pIC50 in experiment [1] was 6.51; in experiment [2], 5.00.

Turning to `CN[C@H]1CC[C@@H](c2ccc(C(F)(F)F)cc2)c2ccccc21`, the pIC50 in experiment [1] was 5.01; in experiment [2], 5.11.

As for `CN[C@H]1CC[C@@H](c2cccc(C(F)(F)F)c2)c2ccccc21` (stereo in doubt; 56), the pIC50 in experiment [1] is 5.57; in experiment [2] it was 5.01.

As for `CN(C)[C@H]1CC[C@@H](c2ccc(Cl)cc2)c2ccccc21`, the pIC50 was 5.94 in experiment [1] and 5.25 in experiment [2].

On to `CN[C@H]1CC[C@@H](c2ccccc2OC)c2ccccc21`, for which the pIC50 in experiment [1] was 5.64; in experiment [2], 4.95.

`CN[C@H]1CC[C@@H](c2ccc(F)cc2)c2ccccc21`: the pIC50 in experiment [1] is 5.64; in experiment [2], 5.33.

With `CN[C@@H]1CC[C@@H](c2ccccc2)c2ccccc21` (stereo in doubt; 45) [TAMETRALINE], the values for the pIC50 in experiment [1] and in experiment [2] were 6.43 and 5.85, respectively.

In experiment [2], `CN[C@H]1CC[C@@H](c2ccc(Cl)c(C(F)(F)F)c2)c2ccccc21` (stereo in doubt; 60) had a pIC50 of 5.21.

In the case of `CN[C@@H]1CC[C@@H](c2ccc(C(F)(F)F)cc2)c2ccccc21`, the pIC50 in experiment [1] is 6.16; in experiment [2], 5.36.

On to `CN[C@H]1CC[C@@H](c2ccccc2)c2ccccc21` (stereo in doubt; 51), for which the values for the pIC50 in experiment [1] and in experiment [2] were 5.38 and 4.99, respectively.

With `CN(C)[C@H]1CC[C@@H](c2cccc(C(F)(F)F)c2)c2ccccc21`, the pIC50 in experiment [1] was 6.05; in experiment [2] it was 5.15.

Turning to `CN(C)[C@@H]1CC[C@@H](c2ccc(Cl)c(Cl)c2)c2ccccc21`, the pIC50 in experiment [2] is 6.77.

The molecule `CN[C@@H]1CC[C@@H](c2ccc(Cl)c(C(F)(F)F)c2)c2ccccc21` had a pIC50 in experiment [2] of 5.14.

In turn, `CN(C)C/C=C(/c1ccc(Br)cc1)c1cccnc1` [ZIMELDINE] gave a pIC50 in experiment [2] of 4.37.

For the molecule `CCCCOc1ccc([C@@H]2CC[C@@H](NC)c3ccccc32)cc1`, the pIC50 in experiment [1] is 5.94.

As for `CN[C@H]1CC[C@@H](c2cccc(C(F)(F)F)c2)c2ccccc21` (stereo in doubt; 57), the pIC50 in experiment [1] was 5.11; in experiment [2], 5.60.

Take `CN[C@H]1CC[C@@H](c2cccc(C(F)(F)F)c2)c2ccccc21`: the pIC50 is 5.59 in experiment [1] and 5.60 in experiment [2].

On to `CN(C)[C@H]1CC[C@@H](c2ccc(C(F)(F)F)cc2)c2ccccc21`, for which the pIC50 was 4.85 in experiment [1] and 4.91 in experiment [2].
